# Measured values as given in US8822505B2, “Azetidine derivatives” (Hoffmann-La Roche Inc., priority 2012, dated 2014).
# Columns and labels:
# human Cat L = human Cat L (Homo sapiens (Human), UniProt P07711); assay: Cathepsin enzyme inhibition assay (human Cat L); type: biochemical; details: enzyme 1 nM, substrate Z-Val-Val-Arg-AMC 20 μM, pH 6.5
# Protocol: (§1) Cathepsin Enzyme Inhibition Assay
# (§2) Enzyme activity is measured by observing the increase in fluorescence intensity caused by cleavage of a peptide substrate containing a fluorophore whose emission is quenched in the intact peptide.
# (§3) Assay buffer: 100 mM potassium phosphate pH 6.5, EDTA-Na 5 mM, Triton X-100 0.001%, DTT 5 mM.
# (§4) Enzymes (all at 1 nM): human and mouse Cathepsin S, Cat K, Cat B, Cat L.
# (§5) Substrate (20 μM): Z-Val-Val-Arg-AMC, except for Cat K which uses Z-Leu-Arg-AMC (both from Bachem).
# Excitation 360 nm, Emission 465 nm.
# Enzyme is added to the substance dilutions in 96-well microtitre plates and the reaction is started with substrate. Fluorescence emission is measured over 20 minutes, during which time a linear increase is observed in the absence of inhibitor. IC50 are calculated by standard methods.
# Inhibition of human Cat S, mouse Cat S, human Cat K, human Cat B, human Cat L and mouse Cat L have been measured separately. The results obtained for human Cat S and L for representative compounds of the invention are expressed in the following table in μM.
# human Cat S = human Cat S (Homo sapiens (Human), UniProt P25774); assay: Cathepsin enzyme inhibition assay (human Cat S); type: biochemical; details: enzyme 1 nM, substrate Z-Val-Val-Arg-AMC 20 μM, pH 6.5
# Protocol: as §1, §2, §3, §4, §5
# Enzyme is added to the substance dilutions in 96-well microtitre plates and the reaction is started with substrate. […] IC50 are calculated by standard methods.
# Inhibition of human Cat S, mouse Cat S, human Cat K, human Cat B, human Cat L and mouse Cat L have been measured separately.
# Chain of human Cat L (P07711 114-333): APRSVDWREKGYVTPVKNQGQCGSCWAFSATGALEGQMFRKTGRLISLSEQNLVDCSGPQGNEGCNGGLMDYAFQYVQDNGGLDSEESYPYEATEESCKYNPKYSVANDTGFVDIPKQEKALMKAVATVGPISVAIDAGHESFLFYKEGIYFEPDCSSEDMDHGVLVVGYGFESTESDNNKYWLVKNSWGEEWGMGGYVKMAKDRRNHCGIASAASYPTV
# Chain of human Cat S (P25774 115-331): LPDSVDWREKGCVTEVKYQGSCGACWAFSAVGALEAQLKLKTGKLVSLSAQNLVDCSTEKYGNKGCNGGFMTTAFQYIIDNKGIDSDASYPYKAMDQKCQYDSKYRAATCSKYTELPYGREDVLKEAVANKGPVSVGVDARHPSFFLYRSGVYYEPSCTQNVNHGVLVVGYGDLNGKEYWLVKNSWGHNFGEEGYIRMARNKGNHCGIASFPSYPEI
IC50 (human Cat L) [nM],IC50 (human Cat S) [nM],SMILES
1070,3.22,"COc1ccc(S(=O)(=O)[C@@H]2C[C@@H](C(=O)NC3(C#N)CC3)N(C(=O)C3(c4ccc(Cl)cn4)CN(C(=O)OC(C)(C)C)C3)C2)c(Cl)c1 [Example 1, 3-[(2S,4R)-4-(2-Chloro-4-methoxy-benzenesulfonyl)-2-(1-cyano-cyclopropylcarbamoyl)-pyrrolidine-1-carbonyl]-3-(5-chloro-pyridin-2-yl)-azetidine-1-carboxylic acid tert-butyl ester]"
38.1,1.49,"COc1ccc(S(=O)(=O)[C@@H]2C[C@@H](C(=O)NC3(C#N)CC3)N(C(=O)C3(c4ccc(Cl)cn4)CNC3)C2)c(Cl)c1 [Example 2, (2S,4R)-4-(2-Chloro-4-methoxy-benzenesulfonyl)-1-[3-(5-chloro-pyridin-2-yl)-azetidine-3-carbonyl]-pyrrolidine-2-carboxylic acid (1-cyano-cyclopropyl)-amide]"
292,1.2,"COc1ccc(S(=O)(=O)[C@@H]2C[C@@H](C(=O)NC3(C#N)CC3)N(C(=O)C3(c4ccc(Cl)cn4)CN(C)C3)C2)c(Cl)c1 [Example 3, (2S,4R)-4-(2-Chloro-4-methoxy-benzenesulfonyl)-1-[3-(5-chloro-pyridin-2-yl)-1-methyl-azetidine-3-carbonyl]-pyrrolidine-2-carboxylic acid (1-cyano-cyclopropyl)-amide]"
1240,2.75,"CC(C)(C)OC(=O)N1CC(C(=O)N2C[C@H](S(=O)(=O)c3ccc(OCC(F)(F)F)cc3Cl)C[C@H]2C(=O)NC2(C#N)CC2)(c2ccc(Cl)cn2)C1 [Example 4, 3-(5-Chloro-pyridin-2-yl)-3-[(2S,4R)-4-[2-chloro-4-(2,2,2-trifluoro-ethoxy)-benzenesulfonyl]-2-(1-cyano-cyclopropylcarbamoyl)-pyrrolidine-1-carbonyl]-azetidine-1-carboxylic acid tert-butyl ester]"
753,3.69,"CC(C)(C)OC(=O)N1CC(C(=O)N2C[C@H](S(=O)(=O)c3ccc(OCC(F)(F)F)cc3Cl)C[C@H]2C(=O)NC2(C#N)CC2)(c2ccc(Br)cn2)C1 [Example 5, 3-(5-Bromo-pyridin-2-yl)-3-[(2S,4R)-4-[2-chloro-4-(2,2,2-trifluoro-ethoxy)-benzenesulfonyl]-2-(1-cyano-cyclopropylcarbamoyl)-pyrrolidine-1-carbonyl]-azetidine-1-carboxylic acid tert-butyl ester]"
89.8,,"N#CC1(NC(=O)[C@@H]2C[C@@H](S(=O)(=O)c3ccc(OCC(F)(F)F)cc3Cl)CN2C(=O)C2(c3ccc(Cl)cn3)CNC2)CC1 [Example 6, (2S,4R)-1-[3-(5-Chloro-pyridin-2-yl)-azetidine-3-carbonyl]-4-[2-chloro-4-(2,2,2-trifluoro-ethoxy)-benzenesulfonyl]-pyrrolidine-2-carboxylic acid (1-cyano-cyclopropyl)-amide]"
73.5,3.82,"N#CC1(NC(=O)[C@@H]2C[C@@H](S(=O)(=O)c3ccc(OCC(F)(F)F)cc3Cl)CN2C(=O)C2(c3ccc(Br)cn3)CNC2)CC1 [Example 7, (2S,4R)-1-[3-(5-Bromo-pyridin-2-yl)-azetidine-3-carbonyl]-4-[2-chloro-4-(2,2,2-trifluoro-ethoxy)-benzenesulfonyl]-pyrrolidine-2-carboxylic acid (1-cyano-cyclopropyl)-amide]"
194,1.26,"CC(C)(C)OC(=O)N1CC(C(=O)N2C[C@H](S(=O)(=O)c3ccccc3Cl)C[C@H]2C(=O)NC2(C#N)CC2)(c2ncc(Cl)cc2F)C1 [Example 10, 3-[(2S,4R)-4-(2-Chloro-benzenesulfonyl)-2-(1-cyano-cyclopropylcarbamoyl)-pyrrolidine-1-carbonyl]-3-(5-chloro-3-fluoro-pyridin-2-yl)-azetidine-1-carboxylic acid tert-butyl ester]"
70.5,1.27,"CC(C)(C)OC(=O)N1CC(C(=O)N2C[C@H](S(=O)(=O)c3ccccc3Cl)C[C@H]2C(=O)NC2(C#N)CC2)(c2ncc(Br)cc2F)C1 [Example 11, tert-Butyl 3-(5-bromo-3-fluoropyridin-2-yl)-3-((2S,4R)-4-(2-chlorophenylsulfonyl)-2-(1-cyanocyclopropylcarbamoyl)pyrrolidine-1-carbonyl)azetidine-1-carboxylate]"
23.6,1.07,"N#CC1(NC(=O)[C@@H]2C[C@@H](S(=O)(=O)c3ccccc3Cl)CN2C(=O)C2(c3ncc(Cl)cc3F)CNC2)CC1 [Example 12, (2S,4R)-1-(3-(5-Chloro-3-fluoropyridin-2-yl)azetidine-3-carbonyl)-4-(2-chlorophenylsulfonyl)-N-(1-cyanocyclopropyl)pyrrolidine-2-carboxamide]"
12.5,,"CN1CC(C(=O)N2C[C@H](S(=O)(=O)c3ccccc3Cl)C[C@H]2C(=O)NC2(C#N)CC2)(c2ncc(Br)cc2F)C1 [Example 14, (2S,4R)-1-[3-(5-Bromo-3-fluoro-pyridin-2-yl)-1-methyl-azetidine-3-carbonyl]-4-(2-chloro-benzenesulfonyl)-pyrrolidine-2-carboxylic acid (1-cyano-cyclopropyl)-amide]"
528,,"C[C@H](Oc1ccc(S(=O)(=O)[C@@H]2C[C@@H](C(=O)NC3(C#N)CC3)N(C(=O)C3(c4ncc(Cl)cc4F)CCN3C(=O)OC(C)(C)C)C2)c(Cl)c1)C(F)(F)F (stereo partly drawn) [Example 27, tert-butyl 2-(5-chloro-3-fluoropyridin-2-yl)-2-((2S,4R)-4-(2-chloro-4-((S)-1,1,1-trifluoropropan-2-yloxy)phenylsulfonyl)-2-(1-cyanocyclopropylcarbamoyl)pyrrolidine-1-carbonyl)azetidine-1-carboxylate]"
556,,"C[C@H](Oc1ccc(S(=O)(=O)[C@@H]2C[C@@H](C(=O)NC3(C#N)CC3)N(C(=O)C3(c4ncc(Cl)cc4F)CCN3C(=O)OC(C)(C)C)C2)c(Cl)c1)C(F)(F)F (stereo partly drawn) [Example 28, tert-butyl 2-(5-chloro-3-fluoropyridin-2-yl)-2-((2S,4R)-4-(2-chloro-4-((S)-1,1,1-trifluoropropan-2-yloxy)phenylsulfonyl)-2-(1-cyanocyclopropylcarbamoyl)pyrrolidine-1-carbonyl)azetidine-1-carboxylate]"

SMILES,IC50 (human Cat L) [nM],IC50 (human Cat S) [nM]
"N#CC1(NC(=O)[C@@H]2C[C@@H](S(=O)(=O)c3ccc(OCC(F)(F)F)cc3Cl)CN2C(=O)C2(c3ccc(Cl)cn3)CN(CC(F)F)C2)CC1 [Example 8, (2S,4R)-1-[3-(5-Chloro-pyridin-2-yl)-1-(2,2-difluoro-ethyl)-azetidine-3-carbonyl]-4-[2-chloro-4-(2,2,2-trifluoro-ethoxy)-benzenesulfonyl]-pyrrolidine-2-carboxylic acid (1-cyano-cyclopropyl)-amide]",141,0.694
"N#CC1(NC(=O)[C@@H]2C[C@@H](S(=O)(=O)c3ccc(OCC(F)(F)F)cc3Cl)CN2C(=O)C2(c3ccc(Br)cn3)CN(CC(F)F)C2)CC1 [Example 9, (2S,4R)-1-[3-(5-Bromo-pyridin-2-yl)-1-(2,2-difluoro-ethyl)-azetidine-3-carbonyl]-4-[2-chloro-4-(2,2,2-trifluoro-ethoxy)-benzenesulfonyl]-pyrrolidine-2-carboxylic acid (1-cyano-cyclopropyl)-amide]",91.7,0.779
